Data published in ChEMBL document CHEMBL3046573, “Baseline sensitivity of Pestalotiopsis microspora, which causes black spot disease on Chinese hickory (Carya cathayensis), to pyraclostrobin” (Crop Prot, 2012).
In brackets after ≈: the same amount, converted by molar mass.

Experiments:
[1] = system: Pestalotiopsis microspora; test: Fungicidal activity against Pestalotiopsis microspora infected in Chinese hickory orchards assessed as conidium germination inhibition at 25 degC after 24 hr; assay type: functional, organism-based
[2] = system: Pestalotiopsis microspora; test: Fungicidal activity against Pestalotiopsis microspora infected Chinese hickory orchards assessed as mycelial growth inhibition at 25 degC after 5 days; assay type: functional, organism-based; conditions: 120 h
[3] = system: Pestalotiopsis microspora; test: Resistance factor, ratio of EC50 for pyraclostrobin-resistant mutant Pestalotiopsis microspora isolate LA1R2 to EC50 for wild type Pestalotiopsis microspora isolate LA-1; assay type: functional
[4] = system: Pestalotiopsis microspora; test: Resistance factor, ratio of EC50 for pyraclostrobin-resistant mutant Pestalotiopsis microspora isolate LA1R1 to EC50 for wild type Pestalotiopsis microspora isolate LA-1; assay type: functional
[5] = system: Pestalotiopsis microspora; test: Fungicidal activity against pyraclostrobin-resistant mutant Pestalotiopsis microspora isolate CA8R3 assessed as conidium germination inhibition at 25 degC; assay type: functional, organism-based
[6] = system: Pestalotiopsis microspora; test: Fungicidal activity against pyraclostrobin-resistant mutant Pestalotiopsis microspora isolate CA8R2 assessed as conidium germination inhibition at 25 degC; assay type: functional, organism-based
[7] = system: Pestalotiopsis microspora; test: Fungicidal activity against pyraclostrobin-resistant mutant Pestalotiopsis microspora isolate CA8R1 assessed as conidium germination inhibition at 25 degC; assay type: functional, organism-based
[8] = system: Pestalotiopsis microspora; test: Fungicidal activity against wild type Pestalotiopsis microspora isolate CA-8 assessed as conidium germination inhibition at 25 degC; assay type: functional, organism-based
[9] = system: Pestalotiopsis microspora; test: Fungicidal activity against pyraclostrobin-resistant mutant Pestalotiopsis microspora isolate LA1R2 assessed as conidium germination inhibition at 25 degC; assay type: functional, organism-based
[10] = system: Pestalotiopsis microspora; test: Fungicidal activity against pyraclostrobin-resistant mutant Pestalotiopsis microspora isolate LA1R1 assessed as conidium germination inhibition at 25 degC; assay type: functional, organism-based
[11] = system: Pestalotiopsis microspora; test: Fungicidal activity against wild type Pestalotiopsis microspora isolate LA-1 assessed as conidium germination inhibition at 25 degC; assay type: functional, organism-based
[12] = system: Pestalotiopsis microspora; test: Resistance factor, ratio of EC50 for pyraclostrobin-resistant mutant Pestalotiopsis microspora isolate CA8R3 to EC50 for wild type Pestalotiopsis microspora isolate CA-8; assay type: functional
[13] = system: Pestalotiopsis microspora; test: Resistance factor, ratio of EC50 for pyraclostrobin-resistant mutant Pestalotiopsis microspora isolate CA8R2 to EC50 for wild type Pestalotiopsis microspora isolate CA-8; assay type: functional
[14] = system: Pestalotiopsis microspora; test: Resistance factor, ratio of EC50 for pyraclostrobin-resistant mutant Pestalotiopsis microspora isolate CA8R1 to EC50 for wild type Pestalotiopsis microspora isolate CA-8; assay type: functional
[15] = system: Pestalotiopsis microspora; test: Fungicidal activity against Pestalotiopsis microspora isolates infected Chinese hickory orchards by conidium germination test; assay type: functional, organism-based

Row | SMILES | EC50 [1] [µg/mL] | EC50 [2] [µg/mL] | Ratio EC50 [3] | Ratio EC50 [4] | EC50 [5] [µg/mL] | EC50 [6] [µg/mL] | EC50 [7] [µg/mL] | EC50 [8] [µg/mL] | EC50 [9] [µg/mL] | EC50 [10] [µg/mL] | EC50 [11] [µg/mL] | Ratio EC50 [12] | Ratio EC50 [13] | Ratio EC50 [14] | EC50 [15] [µg/mL]
1 | CC(C)NC(=O)N1CC(=O)N(c2cc(Cl)cc(Cl)c2)C1=O [IPRODIONE] | 9.87 (≈ 29.9 µM) | 2.03 (≈ 6.15 µM) |  |  |  |  |  |  |  |  |  |  |  |  | 
2 | CC(=O)O.CCCCCCCCCCCCNC(=N)N [DODINE] | 32.7 | 27 |  |  |  |  |  |  |  |  |  |  |  |  | 
3 | CC12CC1(C)C(=O)N(c1cc(Cl)cc(Cl)c1)C2=O (configuration not stated) [PROCYMIDONE] | 12 (≈ 42.3 µM) | 1.68 (≈ 5.91 µM) |  |  |  |  |  |  |  |  |  |  |  |  | 
4 | CC(C)(C)C(O)(CCc1ccc(Cl)cc1)Cn1cncn1 (configuration not stated) [TEBUCONAZOLE] | 20.1 (≈ 65.3 µM) | 1.42 (≈ 4.61 µM) |  |  |  |  |  |  |  |  |  |  |  |  | 
5 | CC1COC(Cn2cncn2)(c2ccc(Oc3ccc(Cl)cc3)cc2Cl)O1 (configuration not stated) [DIFENOCONAZOLE] | 28.5 (≈ 70.1 µM) | 4.27 (≈ 10.5 µM) |  |  |  |  |  |  |  |  |  |  |  |  | 
6 | COC(=O)NC(=S)Nc1ccccc1NC(=S)NC(=O)OC [THIOPHANATE METHYL] | 25.7 (≈ 75 µM) | 1.45 (≈ 4.23 µM) |  |  |  |  |  |  |  |  |  |  |  |  | 
7 | O=C(Nc1ccccc1-c1ccc(Cl)cc1)c1cccnc1Cl [BOSCALID] | 23.9 (≈ 69.7 µM) | 167 (≈ 486 µM) | 1.02 | 0.98 | 19 (≈ 55.4 µM) | 17.7 (≈ 51.6 µM) | 18.1 (≈ 52.7 µM) | 18.6 (≈ 54.2 µM) | 20.6 (≈ 60 µM) | 19.7 (≈ 57.4 µM) | 20.1 (≈ 58.6 µM) | 1.05 | 0.95 | 0.97 | 
8 | CO/C=C(/C(=O)OC)c1ccccc1Oc1cc(Oc2ccccc2C#N)ncn1 [AZOXYSTROBIN] | 1.36 (≈ 3.37 µM) | 2.61 (≈ 6.47 µM) | 38.16 | 14.94 | 15.4 (≈ 38.2 µM) | 21.9 (≈ 54.3 µM) | 17.3 (≈ 42.9 µM) | 0.76 (≈ 1.88 µM) | 12.2 (≈ 30.3 µM) | 4.78 (≈ 11.8 µM) | 0.32 (≈ 0.793 µM) | 20.25 | 28.82 | 22.75 | 
9 | N#Cc1c(Cl)c(Cl)c(Cl)c(C#N)c1Cl [CHLOROTHALONIL] | 3.05 (≈ 11.5 µM) | 2.08 (≈ 7.82 µM) |  |  |  |  |  |  |  |  |  |  |  |  | 
10 | COC(=O)N(OC)c1ccccc1COc1ccn(-c2ccc(Cl)cc2)n1 [PYRACLOSTROBIN] | 0.08 (≈ 0.206 µM) | 0.92 (≈ 2.37 µM) | 406 | 179 | 4.25 (≈ 11 µM) | 9.59 (≈ 24.7 µM) | 8.17 (≈ 21.1 µM) | 0.04 (≈ 0.103 µM) | 12.2 (≈ 31.4 µM) | 5.67 (≈ 14.6 µM) | 0.03 (≈ 0.0774 µM) | 106 | 240 | 204 | 0.13 (≈ 0.335 µM)
